Consider three compounds from ChEMBL document CHEMBL1201862, “PubChem BioAssay data set” (2004).

The source made the active and inactive calls. Bounds are passed on as bounds.

Assay [1] has as its target Caspase-7 (Homo sapiens, UniProt P55210). The assay can be described thus: human caspase-7 inhibitors, dose response, selectivity assay for caspase-6 inhibitor project, biochemical, DEVD-R110 fluorescence, cherry-pick (AID 743295). Format: […].
Assay [2] addresses T1, Replicative DNA helicase DnaB (Mycobacterium tuberculosis, UniProt P9WMR3).
T1 sequence (P9WMR3 whole entry): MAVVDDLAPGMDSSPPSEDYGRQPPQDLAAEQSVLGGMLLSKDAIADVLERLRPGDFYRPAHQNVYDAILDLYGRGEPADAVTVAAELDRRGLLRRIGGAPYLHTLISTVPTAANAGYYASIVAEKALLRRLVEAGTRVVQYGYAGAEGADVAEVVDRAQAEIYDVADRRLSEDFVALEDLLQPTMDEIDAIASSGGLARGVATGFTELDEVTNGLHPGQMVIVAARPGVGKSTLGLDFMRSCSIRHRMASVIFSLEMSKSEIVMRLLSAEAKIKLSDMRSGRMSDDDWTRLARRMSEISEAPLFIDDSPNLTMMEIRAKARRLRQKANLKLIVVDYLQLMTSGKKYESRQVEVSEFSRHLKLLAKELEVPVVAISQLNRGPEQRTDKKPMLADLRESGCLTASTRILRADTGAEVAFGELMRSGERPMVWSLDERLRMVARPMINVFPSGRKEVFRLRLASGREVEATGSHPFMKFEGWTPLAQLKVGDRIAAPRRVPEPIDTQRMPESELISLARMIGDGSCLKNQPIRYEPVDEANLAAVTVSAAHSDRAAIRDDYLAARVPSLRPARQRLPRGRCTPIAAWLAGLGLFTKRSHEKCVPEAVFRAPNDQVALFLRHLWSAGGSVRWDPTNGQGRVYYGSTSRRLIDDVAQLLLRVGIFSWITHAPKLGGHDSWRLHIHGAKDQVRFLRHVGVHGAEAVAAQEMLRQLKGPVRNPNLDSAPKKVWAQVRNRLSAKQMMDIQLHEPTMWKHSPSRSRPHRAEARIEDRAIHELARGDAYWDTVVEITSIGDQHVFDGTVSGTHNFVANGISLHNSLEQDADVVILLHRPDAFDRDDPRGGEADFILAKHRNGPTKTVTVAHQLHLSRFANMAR
The assay can be described thus: DnaB intein splicing inhibitors, dose response, biochemical, cell-free fluorescence (AID 449749). Format: functional.

The target in assay [3] is T2, Sentrin-specific protease 6 (Homo sapiens, UniProt Q9GZR1).
T2 sequence (Q9GZR1 whole entry): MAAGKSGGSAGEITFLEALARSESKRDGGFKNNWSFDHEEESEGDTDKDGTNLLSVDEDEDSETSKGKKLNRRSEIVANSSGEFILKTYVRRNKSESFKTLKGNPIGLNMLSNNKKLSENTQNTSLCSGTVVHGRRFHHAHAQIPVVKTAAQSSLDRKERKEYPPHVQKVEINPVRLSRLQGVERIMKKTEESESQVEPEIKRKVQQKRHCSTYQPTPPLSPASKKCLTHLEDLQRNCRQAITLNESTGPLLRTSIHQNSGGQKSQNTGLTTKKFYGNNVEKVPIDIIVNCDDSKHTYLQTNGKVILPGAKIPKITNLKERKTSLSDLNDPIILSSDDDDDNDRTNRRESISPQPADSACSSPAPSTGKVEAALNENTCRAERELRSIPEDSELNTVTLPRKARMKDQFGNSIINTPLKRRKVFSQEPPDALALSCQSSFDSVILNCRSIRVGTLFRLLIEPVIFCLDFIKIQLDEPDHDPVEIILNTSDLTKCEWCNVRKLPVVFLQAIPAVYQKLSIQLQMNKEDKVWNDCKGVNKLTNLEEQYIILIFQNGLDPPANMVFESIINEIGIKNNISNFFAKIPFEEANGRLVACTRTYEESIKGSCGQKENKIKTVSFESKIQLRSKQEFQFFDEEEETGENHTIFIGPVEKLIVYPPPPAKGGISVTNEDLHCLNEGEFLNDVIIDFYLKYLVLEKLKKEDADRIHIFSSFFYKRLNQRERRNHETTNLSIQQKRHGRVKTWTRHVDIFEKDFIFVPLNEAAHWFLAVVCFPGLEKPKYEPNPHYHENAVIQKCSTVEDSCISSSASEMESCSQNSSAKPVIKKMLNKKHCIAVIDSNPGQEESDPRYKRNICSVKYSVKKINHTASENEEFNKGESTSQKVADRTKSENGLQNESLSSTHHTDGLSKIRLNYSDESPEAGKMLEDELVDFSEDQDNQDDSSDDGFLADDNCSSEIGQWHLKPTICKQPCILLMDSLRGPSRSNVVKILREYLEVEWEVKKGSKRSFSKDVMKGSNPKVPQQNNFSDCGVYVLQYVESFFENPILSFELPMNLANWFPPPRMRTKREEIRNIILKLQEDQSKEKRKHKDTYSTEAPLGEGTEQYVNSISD
The assay can be described thus: SAR Analysis of small molecule inhibitors of Sentrin-specific protease 6 (SENP6) using a Luminescent assay. [Related pubchem assays (depositor defined):AID2582, AID2599]. Format: functional.

Assay [4] has as its target Fibroblast growth factor receptor 1 (Homo sapiens, UniProt P11362). Format: functional.
Assay [5] concerns the target Ribosomal protein S6 kinase alpha-3 (Homo sapiens, UniProt P51812). Format: functional.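 Also: measured within a kinome-wide profiling panel.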
Assay [6] addresses Serine/threonine-protein kinase D3 (Homo sapiens, UniProt O94806). Format: functional.
Assay [7] has as its target Vascular endothelial growth factor receptor 3 (Homo sapiens, UniProt P35916). Format: functional.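 Also: value from a kinome-wide profiling panel, with FLT4 as the panel member.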
The target of assay [8] is Protein kinase C delta type (Homo sapiens, UniProt Q05655). Format: functional.
The target in assay [9] is Megakaryocyte-associated tyrosine-protein kinase (Homo sapiens, UniProt P42679). Format: functional.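 Also: affinity measured as one member of a kinase panel (Navigating the Kinome) against MATK.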
Assay [10] addresses Dual specificity tyrosine-phosphorylation-regulated kinase 3 (Homo sapiens, UniProt O43781). Format: functional.
The target in assay [11] is Protein kinase C zeta type (Homo sapiens, UniProt Q05513). Format: functional.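 Also: measured as one member of a broad kinase profiling panel.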
The target of assay [12] is Tyrosine-protein kinase Lyn (Homo sapiens, UniProt P07948). Format: functional.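 Also: lyn as one member of a kinase panel.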
Assay [13] deals with Serine/threonine-protein kinase MRCK alpha (Homo sapiens, UniProt Q5VT25). Format: functional.
The target of assay [14] is RAC-alpha serine/threonine-protein kinase (Homo sapiens, UniProt P31749). Format: functional.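 Also: AKT1 affinity measured as one member of a kinome-wide kinase profiling panel.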
The target of assay [15] is Dual specificity protein kinase CLK4 (Homo sapiens, UniProt Q9HAZ1). Format: functional.
Assay [16] concerns the target Hepatocyte growth factor receptor (Homo sapiens, UniProt P08581). Format: functional.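 Also: kinase panel profiling across the kinome, with MET as the panel member.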

Usually AC50 stands for the midpoint of the concentration-response curve, whichever way the signal moves. Broadly, the IC50 is the point on the concentration scale where inhibition reaches its midpoint. What is called Ki is the dissociation constant of the complex between target and ligand, obtained from inhibition or displacement.

Caspase-7, sequence (P55210 24-198 limits assumed): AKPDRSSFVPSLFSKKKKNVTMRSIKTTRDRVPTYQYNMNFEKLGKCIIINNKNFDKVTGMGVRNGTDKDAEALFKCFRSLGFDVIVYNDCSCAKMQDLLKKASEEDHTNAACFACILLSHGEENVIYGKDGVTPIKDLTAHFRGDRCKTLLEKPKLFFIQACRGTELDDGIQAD
Caspase-7, sequence (P55210 207-303 limits assumed): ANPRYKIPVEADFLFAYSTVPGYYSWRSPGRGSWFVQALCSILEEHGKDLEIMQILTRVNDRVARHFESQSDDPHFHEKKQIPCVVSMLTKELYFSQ
Dual specificity protein kinase CLK4, sequence (Q9HAZ1 whole entry): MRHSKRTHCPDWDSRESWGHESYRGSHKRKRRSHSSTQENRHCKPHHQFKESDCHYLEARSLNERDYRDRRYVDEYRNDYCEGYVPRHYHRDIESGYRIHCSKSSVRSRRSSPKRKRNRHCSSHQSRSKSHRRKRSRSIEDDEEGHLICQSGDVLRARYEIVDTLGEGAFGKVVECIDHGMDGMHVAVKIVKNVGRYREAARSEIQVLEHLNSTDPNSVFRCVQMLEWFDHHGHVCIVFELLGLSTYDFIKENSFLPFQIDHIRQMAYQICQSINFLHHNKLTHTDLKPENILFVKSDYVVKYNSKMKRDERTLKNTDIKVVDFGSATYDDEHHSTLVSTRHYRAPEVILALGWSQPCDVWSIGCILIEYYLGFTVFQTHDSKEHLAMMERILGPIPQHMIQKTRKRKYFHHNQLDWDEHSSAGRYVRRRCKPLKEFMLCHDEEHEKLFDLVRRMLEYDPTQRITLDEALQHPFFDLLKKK
Protein kinase C zeta type, sequence (Q05513 whole entry): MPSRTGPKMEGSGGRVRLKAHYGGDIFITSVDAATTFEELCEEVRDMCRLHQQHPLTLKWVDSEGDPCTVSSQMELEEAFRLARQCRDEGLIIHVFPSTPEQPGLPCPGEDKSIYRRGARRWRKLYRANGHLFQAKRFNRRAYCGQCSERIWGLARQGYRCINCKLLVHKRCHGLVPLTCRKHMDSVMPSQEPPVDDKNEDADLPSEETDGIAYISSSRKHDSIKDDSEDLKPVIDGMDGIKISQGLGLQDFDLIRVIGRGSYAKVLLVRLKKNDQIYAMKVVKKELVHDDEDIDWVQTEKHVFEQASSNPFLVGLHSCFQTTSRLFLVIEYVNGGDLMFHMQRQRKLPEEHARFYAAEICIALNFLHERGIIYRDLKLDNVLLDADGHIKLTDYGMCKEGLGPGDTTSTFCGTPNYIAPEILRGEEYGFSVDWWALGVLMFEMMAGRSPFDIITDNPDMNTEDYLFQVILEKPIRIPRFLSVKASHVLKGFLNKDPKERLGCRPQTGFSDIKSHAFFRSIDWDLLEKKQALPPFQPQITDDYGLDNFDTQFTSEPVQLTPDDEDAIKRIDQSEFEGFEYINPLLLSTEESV
Fibroblast growth factor receptor 1, sequence (P11362 whole entry): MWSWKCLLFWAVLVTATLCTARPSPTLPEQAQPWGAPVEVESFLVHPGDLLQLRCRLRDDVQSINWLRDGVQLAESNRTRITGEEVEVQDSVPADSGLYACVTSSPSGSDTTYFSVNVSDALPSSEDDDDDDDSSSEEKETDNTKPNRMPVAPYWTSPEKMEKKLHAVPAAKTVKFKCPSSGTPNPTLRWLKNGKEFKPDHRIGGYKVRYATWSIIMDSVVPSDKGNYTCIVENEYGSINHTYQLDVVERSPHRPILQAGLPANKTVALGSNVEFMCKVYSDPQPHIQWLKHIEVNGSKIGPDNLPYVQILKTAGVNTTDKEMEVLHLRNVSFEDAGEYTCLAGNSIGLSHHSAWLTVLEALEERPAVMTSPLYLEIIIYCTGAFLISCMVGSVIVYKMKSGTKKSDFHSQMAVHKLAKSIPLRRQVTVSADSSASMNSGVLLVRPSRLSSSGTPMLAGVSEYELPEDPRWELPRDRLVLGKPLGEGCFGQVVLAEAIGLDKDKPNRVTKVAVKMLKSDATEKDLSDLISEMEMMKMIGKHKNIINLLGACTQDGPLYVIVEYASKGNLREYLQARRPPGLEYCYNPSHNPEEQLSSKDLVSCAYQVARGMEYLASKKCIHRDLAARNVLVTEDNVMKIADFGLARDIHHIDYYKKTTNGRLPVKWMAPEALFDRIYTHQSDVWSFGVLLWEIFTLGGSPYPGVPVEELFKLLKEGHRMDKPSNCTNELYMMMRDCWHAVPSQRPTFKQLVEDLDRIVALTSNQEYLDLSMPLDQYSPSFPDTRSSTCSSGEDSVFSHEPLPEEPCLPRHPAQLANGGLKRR
Hepatocyte growth factor receptor, sequence (P08581 whole entry): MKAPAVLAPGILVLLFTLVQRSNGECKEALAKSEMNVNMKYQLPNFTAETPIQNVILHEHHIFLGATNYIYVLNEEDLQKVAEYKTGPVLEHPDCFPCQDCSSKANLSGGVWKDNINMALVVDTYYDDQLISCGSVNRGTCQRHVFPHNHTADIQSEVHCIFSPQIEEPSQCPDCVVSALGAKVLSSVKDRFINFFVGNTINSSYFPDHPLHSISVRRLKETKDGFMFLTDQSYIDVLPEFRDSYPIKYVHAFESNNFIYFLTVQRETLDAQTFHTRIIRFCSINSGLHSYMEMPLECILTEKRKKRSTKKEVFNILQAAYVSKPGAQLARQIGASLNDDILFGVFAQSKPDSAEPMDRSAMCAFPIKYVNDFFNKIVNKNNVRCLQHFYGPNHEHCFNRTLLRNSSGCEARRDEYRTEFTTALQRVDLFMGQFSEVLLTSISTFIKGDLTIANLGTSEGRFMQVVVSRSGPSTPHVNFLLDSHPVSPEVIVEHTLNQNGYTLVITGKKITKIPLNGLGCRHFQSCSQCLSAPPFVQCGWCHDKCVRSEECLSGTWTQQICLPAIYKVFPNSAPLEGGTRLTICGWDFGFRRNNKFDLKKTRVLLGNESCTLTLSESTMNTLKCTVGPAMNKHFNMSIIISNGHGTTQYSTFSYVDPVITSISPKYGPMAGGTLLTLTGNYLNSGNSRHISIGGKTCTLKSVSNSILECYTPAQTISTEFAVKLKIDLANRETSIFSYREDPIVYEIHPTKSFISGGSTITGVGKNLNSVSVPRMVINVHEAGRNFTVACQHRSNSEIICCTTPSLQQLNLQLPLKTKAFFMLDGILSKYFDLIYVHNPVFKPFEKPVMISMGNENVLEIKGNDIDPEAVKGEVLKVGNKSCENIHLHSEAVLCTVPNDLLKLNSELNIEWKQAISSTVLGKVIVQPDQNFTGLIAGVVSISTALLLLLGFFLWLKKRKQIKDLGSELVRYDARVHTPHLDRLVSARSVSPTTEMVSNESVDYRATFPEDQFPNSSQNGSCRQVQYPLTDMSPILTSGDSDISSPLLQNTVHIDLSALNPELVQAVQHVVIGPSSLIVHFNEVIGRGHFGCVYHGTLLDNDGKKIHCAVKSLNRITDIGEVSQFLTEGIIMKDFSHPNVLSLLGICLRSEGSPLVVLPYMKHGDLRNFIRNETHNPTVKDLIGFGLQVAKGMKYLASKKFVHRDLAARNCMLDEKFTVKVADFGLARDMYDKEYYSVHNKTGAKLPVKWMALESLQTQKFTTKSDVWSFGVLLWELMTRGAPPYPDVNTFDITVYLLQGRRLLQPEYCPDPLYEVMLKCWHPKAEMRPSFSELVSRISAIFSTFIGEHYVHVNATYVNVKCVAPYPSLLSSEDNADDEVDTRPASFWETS
Vascular endothelial growth factor receptor 3, sequence (P35916 whole entry): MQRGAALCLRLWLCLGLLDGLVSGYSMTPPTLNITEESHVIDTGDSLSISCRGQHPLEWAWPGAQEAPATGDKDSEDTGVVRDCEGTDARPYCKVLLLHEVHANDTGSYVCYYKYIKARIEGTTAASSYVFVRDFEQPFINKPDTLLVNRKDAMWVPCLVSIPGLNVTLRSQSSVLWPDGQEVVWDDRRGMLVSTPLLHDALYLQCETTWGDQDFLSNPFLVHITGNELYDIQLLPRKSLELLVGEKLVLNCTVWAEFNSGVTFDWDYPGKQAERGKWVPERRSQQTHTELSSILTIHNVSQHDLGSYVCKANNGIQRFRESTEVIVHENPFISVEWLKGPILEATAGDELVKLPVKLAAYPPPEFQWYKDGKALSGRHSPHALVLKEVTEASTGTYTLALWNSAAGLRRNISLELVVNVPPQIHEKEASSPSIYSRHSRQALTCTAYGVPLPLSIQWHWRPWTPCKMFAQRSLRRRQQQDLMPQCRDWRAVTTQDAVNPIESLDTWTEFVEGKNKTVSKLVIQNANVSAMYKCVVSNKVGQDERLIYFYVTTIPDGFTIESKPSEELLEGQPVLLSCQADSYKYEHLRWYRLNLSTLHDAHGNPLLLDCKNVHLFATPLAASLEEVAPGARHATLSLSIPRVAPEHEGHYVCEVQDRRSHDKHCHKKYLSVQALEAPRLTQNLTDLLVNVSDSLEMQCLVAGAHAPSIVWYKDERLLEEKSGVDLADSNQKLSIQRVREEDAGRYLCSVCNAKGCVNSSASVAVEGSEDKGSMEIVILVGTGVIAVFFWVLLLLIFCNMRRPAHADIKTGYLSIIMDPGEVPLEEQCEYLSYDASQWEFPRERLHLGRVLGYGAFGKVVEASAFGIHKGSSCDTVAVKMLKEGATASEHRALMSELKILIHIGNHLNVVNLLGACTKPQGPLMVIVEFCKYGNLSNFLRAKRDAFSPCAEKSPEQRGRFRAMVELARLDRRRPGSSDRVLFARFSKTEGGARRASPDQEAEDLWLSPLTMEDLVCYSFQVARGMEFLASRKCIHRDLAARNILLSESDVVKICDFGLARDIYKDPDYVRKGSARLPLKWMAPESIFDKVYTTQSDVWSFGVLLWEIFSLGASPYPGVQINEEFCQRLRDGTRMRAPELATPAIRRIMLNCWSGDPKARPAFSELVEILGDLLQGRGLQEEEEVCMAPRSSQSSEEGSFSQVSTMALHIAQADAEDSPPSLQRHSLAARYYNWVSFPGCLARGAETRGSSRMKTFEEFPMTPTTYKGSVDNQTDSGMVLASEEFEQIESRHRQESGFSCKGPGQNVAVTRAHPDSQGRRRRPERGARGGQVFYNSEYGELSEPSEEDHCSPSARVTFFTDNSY

In the case of `O=C(COC(=O)c1ccc([N+](=O)[O-])s1)Nc1cccc(S(=O)(=O)/N=C2/CCCCCN2)c1`, the concentration at half-maximal activity (AC50) in [1] was 14.6 µM (active).

As to `COc1ccc(C(C[N+](=O)[O-])c2c(C)[nH]n(-c3ccccc3)c2=O)cc1` (stereo unspecified), in [2], the AC50 was 3 µM (active). In [3], the IC50 was 9.41 µM (active).

`Oc1c2ccccc2c2c3c(cccc13)N=N2` [SP-600125]: the Ki in assay [4] was 251 nM (active); in assay [5], 398 nM (active); in assay [6], 100 nM (active); in assay [7], 15.8 nM (active); in assay [8], > 7.94 µM (inactive); in assay [9], 501 nM (active). For the same compound, the inhibition constant (Ki) in [10] was 316 nM (active); in assay [11] it was > 7.94 µM (inactive); in assay [12] it was 1 µM (active); in assay [13], > 10 µM (inactive); in assay [14], > 7.94 µM (inactive); in [15], 63.1 nM (active). Moreover, in assay [16], the inhibitory constant (Ki) was 501 nM (active).
